{
  "source": "patent US8765773B2",
  "about": "“Substituted hydroxamic acids and uses thereof” (Millennium Pharmaceuticals, Inc., priority 2010, dated 2014)",
  "data": [
    {"target": "T1, purified human HDAC6 (Homo sapiens, UniProt Q9UBN7)", "T1 construct": "purchased BPS Bioscience 5006", "T1 sequence (Q9UBN7 1-1215)": "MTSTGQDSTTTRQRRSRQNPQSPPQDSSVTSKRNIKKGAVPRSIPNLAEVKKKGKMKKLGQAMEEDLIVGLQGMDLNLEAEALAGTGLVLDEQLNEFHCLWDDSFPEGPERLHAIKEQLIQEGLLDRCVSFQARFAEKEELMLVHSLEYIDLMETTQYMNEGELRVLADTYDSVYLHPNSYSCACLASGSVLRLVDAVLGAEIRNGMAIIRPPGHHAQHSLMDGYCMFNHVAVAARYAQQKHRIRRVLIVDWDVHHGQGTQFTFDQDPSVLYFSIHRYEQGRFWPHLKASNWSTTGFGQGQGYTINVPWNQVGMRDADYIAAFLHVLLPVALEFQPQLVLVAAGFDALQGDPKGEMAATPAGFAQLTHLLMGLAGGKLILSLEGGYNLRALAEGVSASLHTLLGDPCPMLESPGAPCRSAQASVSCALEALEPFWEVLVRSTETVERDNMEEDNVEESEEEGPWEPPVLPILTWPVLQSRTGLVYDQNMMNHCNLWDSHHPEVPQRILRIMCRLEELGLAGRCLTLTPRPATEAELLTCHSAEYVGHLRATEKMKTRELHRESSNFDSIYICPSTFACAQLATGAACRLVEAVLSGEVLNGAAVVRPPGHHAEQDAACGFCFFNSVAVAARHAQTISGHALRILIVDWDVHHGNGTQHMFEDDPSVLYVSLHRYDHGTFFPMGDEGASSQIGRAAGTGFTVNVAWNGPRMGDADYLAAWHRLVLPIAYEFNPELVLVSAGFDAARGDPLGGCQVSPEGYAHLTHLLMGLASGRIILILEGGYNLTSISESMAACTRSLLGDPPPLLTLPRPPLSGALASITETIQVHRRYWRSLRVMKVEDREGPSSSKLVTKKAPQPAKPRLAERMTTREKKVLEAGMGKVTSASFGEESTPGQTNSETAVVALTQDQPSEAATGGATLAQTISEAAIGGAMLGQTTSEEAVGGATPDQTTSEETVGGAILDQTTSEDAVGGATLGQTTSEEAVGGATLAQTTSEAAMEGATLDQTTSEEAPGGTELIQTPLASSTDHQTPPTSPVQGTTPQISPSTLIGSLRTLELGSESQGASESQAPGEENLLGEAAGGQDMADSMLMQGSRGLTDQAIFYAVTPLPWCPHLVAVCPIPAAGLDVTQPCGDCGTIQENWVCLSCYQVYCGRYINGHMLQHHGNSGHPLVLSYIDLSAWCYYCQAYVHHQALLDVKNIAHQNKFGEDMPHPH", "assay": "HDAC6 Enzyme Assay", "format": "biochemical", "details": "compound concentration 0.37 μM, read-out: Percent Inhibition", "method": "(§1) To measure the inhibition of HDAC6 activity, purified human HDAC6 (BPS Bioscience; Cat. No. 5006) is incubated with substrate Ac-Arg-Gly-Lys(Ac)-AMC peptide (Bachem Biosciences; Cat. No. I-1925) for 1 hour at 30° C. in the presence of test compounds or vehicle DMSO control. The reaction is stopped with the HDAC inhibitor trichostatin A (Sigma; Cat. No. T8552) and the amount of Arg-Gly-Lys-AMC generated is quantitated by digestion with trypsin (Sigma; Cat. No. T1426) and subsequent measurement of the amount of AMC released using a fluorescent plate reader (Pherastar; BMG Technologies) set at Ex 340 nm and Em 460 nm. Concentration response curves are generated by calculating the fluorescence increase in test compound-treated samples relative to DMSO-treated controls, and percentage inhibition values at a single concentration or enzyme inhibition (IC50) values are determined from those curves. One skilled in the art will appreciate that the values generated either as percentage inhibition at a single concentration or IC50 values are subject to experimental variation.", "units": {"inhibition at 0.37 µM": "%"}, "values": [
      {"compound": "CC(C)(C)OC(=O)N1CCC(C(CCn2ccc3ccc(C(=O)NO)cc3c2=O)c2ccc(Cl)cc2)CC1", "note": "(centres unmarked) [Compound I-205, tert-butyl 4-{1-(4-chlorophenyl)-3-[7-[(hydroxyamino)carbonyl]-1-oxoisoquinolin-2(1H)-yl]propyl}piperidine-1-carboxylate]", "inhibition at 0.37 µM": 89.5},
      {"compound": "O=C(NO)c1ccc2ncn(Cc3cccc(-c4ccccc4Cl)c3)c(=O)c2c1", "note": "[Compound I-28, 3-[(2′-chlorobiphenyl-3-yl)methyl]-N-hydroxy-4-oxo-3,4-dihydroquinazoline-6-carboxamide]", "inhibition at 0.37 µM": 85.5},
      {"compound": "CC(C)c1cccc(-c2cccc(CCn3cnc4ccc(C(=O)NO)cc4c3=O)c2)c1", "note": "[Compound I-342, N-hydroxy-3-[2-(3′-isopropylbiphenyl-3-yl)ethyl]-4-oxo-3,4-dihydroquinazoline-6-carboxamide]", "inhibition at 0.37 µM": 69.5},
      {"compound": "CC(C)C(c1ccccc1)n1cnc2ccc(C(=O)NO)cc2c1=O", "note": "(centres unmarked) [Compound I-338, N-hydroxy-3-(2-methyl-1-phenylpropyl)-4-oxo-3,4-dihydroquinazoline-6-carboxamide]", "inhibition at 0.37 µM": 96.8},
      {"compound": "CC(C)(C)C(=O)NCCCn1ccc2ccc(C(=O)NO)cc2c1=O", "note": "[Compound I-8, 2-{3-[(2,2-dimethylpropanoyl)amino]propyl}-N-hydroxy-1-oxo-1,2-dihydroisoquinoline-7-carboxamide]", "inhibition at 0.37 µM": 91.7},
      {"compound": "O=C(NO)c1ccc2ncn(CCc3cccc(-c4ccc(F)cc4)c3)c(=O)c2c1", "note": "[Compound I-300, 3-[2-(4′-fluorobiphenyl-3-yl)ethyl]-N-hydroxy-4-oxo-3,4-dihydroquinazoline-6-carboxamide]", "inhibition at 0.37 µM": 91.7},
      {"compound": "O=C(NO)c1ccc2ncn(CCc3cccc(-c4ccc(S(=O)(=O)N5CCCCC5)cc4)c3)c(=O)c2c1", "note": "[Compound I-299, N-hydroxy-4-oxo-3-{2-[4′-(piperidin-1-ylsulfonyl)biphenyl-3-yl]ethyl}-3,4-dihydroquinazoline-6-carboxamide]", "inhibition at 0.37 µM": 90.6},
      {"compound": "COc1ncccc1-c1cccc(Cn2cnc3ccc(C(=O)NO)cc3c2=O)c1", "note": "[Compound I-136, N-hydroxy-3-[3-(2-methoxypyridin-3-yl)benzyl]-4-oxo-3,4-dihydroquinazoline-6-carboxamide]", "inhibition at 0.37 µM": 94},
      {"compound": "CC(C)C(=O)Nc1cccc(Cn2ccc3ccc(C(=O)NO)cc3c2=O)c1", "note": "[Compound I-174, N-hydroxy-2-[3-(isobutyrylamino)benzyl]-1-oxo-1,2-dihydroisoquinoline-7-carboxamide]", "inhibition at 0.37 µM": 98.8},
      {"compound": "COCc1cn(Cc2ccccc2)c(=O)c2cc(C(=O)NO)ccc12", "note": "[Compound I-394, 2-benzyl-N-hydroxy-4-(methoxymethyl)-1-oxo-1,2-dihydroisoquinoline-7-carboxamide]", "inhibition at 0.37 µM": 49.2},
      {"compound": "Cc1ncc(-c2nc3cc(C(=O)NO)ccc3c(=O)n2Cc2ccc(C(F)(F)F)cc2)n1C", "note": "[Compound I-138, 2-(1,2-dimethyl-1H-imidazol-5-yl)-N-hydroxy-4-oxo-3-[4-(trifluoromethyl)benzyl]-3,4-dihydroquinazoline-7-carboxamide]", "inhibition at 0.37 µM": 80.2},
      {"compound": "O=C(NO)c1ccc2ccn(CCC(c3ccc(Cl)cc3)c3ccc(Cl)cc3)c(=O)c2c1", "note": "[Compound I-293, 2-[3,3-bis(4-chlorophenyl)propyl]-N-hydroxy-1-oxo-1,2-dihydroisoquinoline-7-carboxamide]", "inhibition at 0.37 µM": 91.5}
    ]},
    {"target": "T1, purified human HDAC6", "assay": "HDAC6 Enzyme Assay", "format": "biochemical", "details": "compound concentration 0.412 μM, read-out: Percent Inhibition", "method": "as §1", "units": {"inhibition at 0.412 µM": "%"}, "values": [
      {"compound": "COc1ccccc1OCCCn1ccc2ccc(C(=O)NO)cc2c1=O", "note": "[Compound I-240, N-hydroxy-2-[3-(2-methoxyphenoxy)propyl]-1-oxo-1,2-dihydroisoquinoline-7-carboxamide]", "inhibition at 0.412 µM": 96},
      {"compound": "O=C(NO)c1ccc2ccn(CCCc3ccncc3)c(=O)c2c1", "note": "[Compound I-118, N-hydroxy-1-oxo-2-(3-pyridin-4-ylpropyl)-1,2-dihydroisoquinoline-7-carboxamide]", "inhibition at 0.412 µM": 93.3},
      {"compound": "O=C(NO)c1ccc2ccn(CCCCOc3ccccc3)c(=O)c2c1", "note": "[Compound I-62, N-hydroxy-1-oxo-2-(4-phenoxybutyl)-1,2-dihydroisoquinoline-7-carboxamide]", "inhibition at 0.412 µM": 98},
      {"compound": "O=C(NO)c1ccc2ncn(Cc3cccc(C(F)(F)F)c3)c(=O)c2c1", "note": "[Compound I-185, N-hydroxy-4-oxo-3-[3-(trifluoromethyl)benzyl]-3,4-dihydroquinazoline-6-carboxamide]", "inhibition at 0.412 µM": 95.5},
      {"compound": "O=C(NO)c1ccc2ccn(CCOc3ccccc3-n3cccc3)c(=O)c2c1", "note": "[Compound I-71, N-hydroxy-1-oxo-2-{2-[2-(1H-pyrrol-1-yl)phenoxy]ethyl}-1,2-dihydroisoquinoline-7-carboxamide]", "inhibition at 0.412 µM": 98.5},
      {"compound": "O=C(NO)c1ccc2c(=O)[nH]c(C(=O)NCc3ccc(Cl)cc3)nc2c1", "note": "[Compound I-68, N^2-(4-chlorobenzyl)-N^7-hydroxy-4-oxo-3,4-dihydroquinazoline-2,7-dicarboxamide]", "inhibition at 0.412 µM": 61.7},
      {"compound": "Cc1nc2cc(C(=O)NO)ccc2c(=O)[nH]1", "note": "[Compound I-18, N-hydroxy-2-methyl-4-oxo-3,4-dihydroquinazoline-7-carboxamide]", "inhibition at 0.412 µM": 68.9},
      {"compound": "Cc1onc(-c2ccccc2)c1Cn1ccc2ccc(C(=O)NO)cc2c1=O", "note": "[Compound I-259, N-hydroxy-2-[(5-methyl-3-phenylisoxazol-4-yl)methyl]-1-oxo-1,2-dihydroisoquinoline-7-carboxamide]", "inhibition at 0.412 µM": 96.1},
      {"compound": "O=C(NO)c1ccc2ccn(CCCOc3ccccc3Cl)c(=O)c2c1", "note": "[Compound I-227, 2-[3-(2-chlorophenoxy)propyl]-N-hydroxy-1-oxo-1,2-dihydroisoquinoline-7-carboxamide]", "inhibition at 0.412 µM": 93.7},
      {"compound": "O=C(NO)c1ccc2c(=O)[nH]c(CNCc3ccc(Cl)cc3)nc2c1", "note": "[Compound I-92, 2-{[(4-chlorobenzyl)amino]methyl}-N-hydroxy-4-oxo-3,4-dihydroquinazoline-7-carboxamide]", "inhibition at 0.412 µM": 90.9},
      {"compound": "O=C(NO)c1ccc2ccn(CC3CCNCC3)c(=O)c2c1", "note": "[Compound I-2, N-hydroxy-1-oxo-2-(piperidin-4-ylmethyl)-1,2-dihydroisoquinoline-7-carboxamide]", "inhibition at 0.412 µM": 82.2},
      {"compound": "O=C(NO)c1ccc2c(=O)n(-c3ccccc3)c(NCc3ccc(Cl)cc3)nc2c1", "note": "[Compound I-86, 2-[(4-chlorobenzyl)amino]-N-hydroxy-4-oxo-3-phenyl-3,4-dihydroquinazoline-7-carboxamide]", "inhibition at 0.412 µM": 74.2},
      {"compound": "Cc1cc(Cn2ccc3ccc(C(=O)NO)cc3c2=O)no1", "note": "[Compound I-148, N-hydroxy-2-[(5-methylisoxazol-3-yl)methyl]-1-oxo-1,2-dihydroisoquinoline-7-carboxamide]", "inhibition at 0.412 µM": 91.2},
      {"compound": "CC(C)Cc1nc2cc(C(=O)NO)ccc2c(=O)n1Cc1ccc(C(F)(F)F)cc1", "note": "[Compound I-81, N-hydroxy-2-isobutyl-4-oxo-3-[4-(trifluoromethyl)benzyl]-3,4-dihydroquinazoline-7-carboxamide]", "inhibition at 0.412 µM": 76.7},
      {"compound": "CC(C)Nc1nc2cc(C(=O)NO)ccc2c(=O)n1-c1ccc(Cl)cc1", "note": "[Compound I-40, 3-(4-chlorophenyl)-N-hydroxy-2-(isopropylamino)-4-oxo-3,4-dihydroquinazoline-7-carboxamide]", "inhibition at 0.412 µM": 44.5},
      {"compound": "Cn1c(=O)[nH]c2cc(C(=O)NO)ccc2c1=O", "note": "[Compound I-286, N-hydroxy-3-methyl-2,4-dioxo-1,2,3,4-tetrahydroquinazoline-7-carboxamide]", "inhibition at 0.412 µM": 21.2},
      {"compound": "CC(C)(C)OC(=O)N1CCC(CCn2ccc3ccc(C(=O)NO)cc3c2=O)CC1", "note": "[Compound I-58, tert-butyl 4-{2-[7-[(hydroxyamino)carbonyl]-1-oxoisoquinolin-2(1H)-yl]ethyl}piperidine-1-carboxylate]", "inhibition at 0.412 µM": 80.4}
    ]}
  ]
}
